Assay results published in patent publication US11572590B2, “Methods for evaluating tumor cell spheroids using 3D microfluidic cell culture device” (Dana-Farber Cancer Institute, Inc., priority 2017, dated 2023).
Like-named read-outs stand apart in the source and are kept apart here.

Legend:
Assay in all cases: SelectScreen Kinase Profiling, single point inhibition and IC50 for off-target kinases
Assay type in all cases: biochemical
off-target kinases [1] = molecular target: off-target kinases (Homo sapiens, UniProt P53779); conditions: MAPK10 (JNK3)
off-target kinases (Homo sapiens, UniProt P53779), sequence (P53779 whole entry): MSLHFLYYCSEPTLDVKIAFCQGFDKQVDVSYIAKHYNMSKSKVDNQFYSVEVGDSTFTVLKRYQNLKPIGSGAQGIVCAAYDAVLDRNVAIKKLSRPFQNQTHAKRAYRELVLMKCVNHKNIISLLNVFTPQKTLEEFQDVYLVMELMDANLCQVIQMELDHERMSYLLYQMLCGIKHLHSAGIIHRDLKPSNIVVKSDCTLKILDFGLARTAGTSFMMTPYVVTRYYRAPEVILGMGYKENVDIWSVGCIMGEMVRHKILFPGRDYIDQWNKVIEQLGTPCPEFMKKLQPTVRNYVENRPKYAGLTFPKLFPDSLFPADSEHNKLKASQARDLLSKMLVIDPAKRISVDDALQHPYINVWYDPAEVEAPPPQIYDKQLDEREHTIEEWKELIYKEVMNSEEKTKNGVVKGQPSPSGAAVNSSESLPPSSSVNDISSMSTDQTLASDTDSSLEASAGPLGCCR

off-target kinases [2] = molecular target: off-target kinases (Homo sapiens, UniProt P53671); conditions: LIMK2, LanthaScreen Binding
off-target kinases (Homo sapiens, UniProt P53671), sequence (P53671 whole entry): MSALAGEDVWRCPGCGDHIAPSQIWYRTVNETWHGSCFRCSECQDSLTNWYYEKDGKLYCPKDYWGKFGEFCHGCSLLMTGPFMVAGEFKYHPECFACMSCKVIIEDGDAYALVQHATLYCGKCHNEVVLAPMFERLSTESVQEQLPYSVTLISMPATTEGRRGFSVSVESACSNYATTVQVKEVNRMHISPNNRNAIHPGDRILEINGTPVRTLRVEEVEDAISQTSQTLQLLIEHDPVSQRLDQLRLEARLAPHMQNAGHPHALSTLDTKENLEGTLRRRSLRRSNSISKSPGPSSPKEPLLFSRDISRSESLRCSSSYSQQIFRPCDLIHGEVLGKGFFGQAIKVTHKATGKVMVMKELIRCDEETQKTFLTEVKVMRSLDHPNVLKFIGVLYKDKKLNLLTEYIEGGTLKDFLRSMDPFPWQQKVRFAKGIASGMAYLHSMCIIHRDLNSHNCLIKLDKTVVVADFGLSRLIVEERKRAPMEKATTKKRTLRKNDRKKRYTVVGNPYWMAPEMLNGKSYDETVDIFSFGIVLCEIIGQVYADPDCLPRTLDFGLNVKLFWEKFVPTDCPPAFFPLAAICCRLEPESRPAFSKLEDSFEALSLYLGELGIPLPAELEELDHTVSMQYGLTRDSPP

off-target kinases [3] = molecular target: T1, off-target kinases (Homo sapiens, UniProt O14936); conditions: CASK, LanthaScreen Binding
T1 sequence (O14936 1-926): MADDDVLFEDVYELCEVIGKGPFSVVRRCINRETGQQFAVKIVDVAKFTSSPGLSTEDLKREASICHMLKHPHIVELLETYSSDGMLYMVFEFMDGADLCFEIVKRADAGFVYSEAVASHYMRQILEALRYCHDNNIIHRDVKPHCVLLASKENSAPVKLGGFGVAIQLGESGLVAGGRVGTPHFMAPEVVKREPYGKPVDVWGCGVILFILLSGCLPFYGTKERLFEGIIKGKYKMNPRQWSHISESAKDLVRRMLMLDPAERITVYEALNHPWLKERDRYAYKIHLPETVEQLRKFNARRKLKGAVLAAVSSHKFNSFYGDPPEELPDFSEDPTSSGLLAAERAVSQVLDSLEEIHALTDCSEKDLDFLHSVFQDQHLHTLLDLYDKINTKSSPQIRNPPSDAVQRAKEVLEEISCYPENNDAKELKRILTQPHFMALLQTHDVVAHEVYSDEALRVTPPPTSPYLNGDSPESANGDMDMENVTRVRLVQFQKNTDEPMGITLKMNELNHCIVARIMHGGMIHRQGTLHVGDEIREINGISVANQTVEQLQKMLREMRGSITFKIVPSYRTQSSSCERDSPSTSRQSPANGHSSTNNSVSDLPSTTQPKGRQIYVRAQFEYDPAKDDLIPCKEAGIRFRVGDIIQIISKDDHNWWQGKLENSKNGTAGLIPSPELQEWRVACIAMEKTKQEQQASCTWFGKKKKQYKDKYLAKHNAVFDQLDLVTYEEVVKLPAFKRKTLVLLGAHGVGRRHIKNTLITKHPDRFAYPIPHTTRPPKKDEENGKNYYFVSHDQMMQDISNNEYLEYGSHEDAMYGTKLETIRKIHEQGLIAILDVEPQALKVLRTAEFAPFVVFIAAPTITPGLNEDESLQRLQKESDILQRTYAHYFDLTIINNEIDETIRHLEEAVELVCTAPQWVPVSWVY

off-target kinases [4] = molecular target: T2, off-target kinases (Homo sapiens, UniProt O60285); conditions: NUAK1 (ARK5), ATP Km app, Adapta
T2 sequence (O60285 1-661): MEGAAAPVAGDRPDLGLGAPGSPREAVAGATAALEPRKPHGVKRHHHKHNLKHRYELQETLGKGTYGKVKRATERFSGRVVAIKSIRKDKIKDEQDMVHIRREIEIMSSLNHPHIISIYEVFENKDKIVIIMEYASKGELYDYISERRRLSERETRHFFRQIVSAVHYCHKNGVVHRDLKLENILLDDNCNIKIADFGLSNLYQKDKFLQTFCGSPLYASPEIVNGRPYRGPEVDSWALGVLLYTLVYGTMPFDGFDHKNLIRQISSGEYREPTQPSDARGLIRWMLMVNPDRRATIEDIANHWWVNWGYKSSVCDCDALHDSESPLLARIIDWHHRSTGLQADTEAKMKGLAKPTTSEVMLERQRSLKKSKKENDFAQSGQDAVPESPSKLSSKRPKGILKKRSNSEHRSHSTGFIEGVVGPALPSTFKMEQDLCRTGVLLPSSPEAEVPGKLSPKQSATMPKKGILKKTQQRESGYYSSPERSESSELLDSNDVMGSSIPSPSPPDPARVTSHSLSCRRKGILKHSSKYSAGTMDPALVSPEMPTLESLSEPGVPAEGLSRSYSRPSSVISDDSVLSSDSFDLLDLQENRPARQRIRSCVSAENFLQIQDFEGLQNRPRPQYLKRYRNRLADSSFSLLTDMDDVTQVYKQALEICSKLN

SMILES: N#Cc1cc(-c2ncnc(Nc3ccc(N4CCN(C5COC5)CC4)cc3)n2)ccc1OC1CCOCC1 [Compound 1, 5-(4-((4-(4-(oxetan-3-yl)piperazin-1-yl)phenyl)amino)-1,3,5-triazin-2-yl)-2-((tetrahydro-2H-pyran-4-yl)oxy)benzonitrile]
- inhibition (off-target kinases [1]; LanthaScreen Binding, read-out: % Inhibition 1): 48%
- inhibition (off-target kinases [1]; LanthaScreen Binding, read-out: % Inhibition 2): 49%
- inhibition (off-target kinases [1]; LanthaScreen Binding, read-out: % Inhibition Avg): 49%
- inhibition (off-target kinases [1]; ZLYTE, ATP 100, read-out: % Inhibition 1): 20%
- inhibition (off-target kinases [1]; ZLYTE, ATP 100, read-out: % Inhibition 2): 21%
- inhibition (off-target kinases [1]; ZLYTE, ATP 100, read-out: % Inhibition Avg): 20%
- inhibition (off-target kinases [2]; read-out: % Inhibition 1): 14%
- inhibition (off-target kinases [2]; read-out: % Inhibition 2): 19%
- inhibition (off-target kinases [2]; read-out: % Inhibition Avg): 17%
- inhibition (off-target kinases [3]; read-out: % Inhibition 1): 6%
- inhibition (off-target kinases [3]; read-out: % Inhibition 2): 10%
- inhibition (off-target kinases [3]; read-out: % Inhibition Avg): 8%
- inhibition (off-target kinases [4]; read-out: % Inhibition 1): 83%
- inhibition (off-target kinases [4]; read-out: % Inhibition 2): 83%
- inhibition (off-target kinases [4]; read-out: % Inhibition Avg): 83%
